The source of these data is article PMC7997269, “Oral Proteasomal Inhibitors Ixazomib, Oprozomib, and Delanzomib Upregulate the Function of Organic Anion Transporter 3 (OAT3): Implications in OAT3-Mediated Drug-Drug Interactions” (Pharmaceutics, 2021).

Data set [1] concerns T1, 20S proteasome.
T1 construct: gene PSMB5; endogenous 20S proteasome of hOAT3-expressing COS-7 cells; activity read in lysate of drug-treated cells with SUC-LLVY-AMC (chymotrypsin-like, beta5); complex of 28 subunits
The data set can be described thus: […] activity with SUC-LLVY-AMC in lysate after […] h treatment of intact COS-7 cells. The data set is classed as cell-based. The note with it: 37 °C; reversible; chymotrypsin-like activity.

In data set [2] the target is T2, OAT3 (hOAT3) (Homo sapiens, UniProt Q8TCC7).
T2 construct: gene SLC22A8; full-length human OAT3 with fused Myc tag, stably expressed in COS-7 cells; ~80 kDa on blot
T2 sequence (Q8TCC7 1-542): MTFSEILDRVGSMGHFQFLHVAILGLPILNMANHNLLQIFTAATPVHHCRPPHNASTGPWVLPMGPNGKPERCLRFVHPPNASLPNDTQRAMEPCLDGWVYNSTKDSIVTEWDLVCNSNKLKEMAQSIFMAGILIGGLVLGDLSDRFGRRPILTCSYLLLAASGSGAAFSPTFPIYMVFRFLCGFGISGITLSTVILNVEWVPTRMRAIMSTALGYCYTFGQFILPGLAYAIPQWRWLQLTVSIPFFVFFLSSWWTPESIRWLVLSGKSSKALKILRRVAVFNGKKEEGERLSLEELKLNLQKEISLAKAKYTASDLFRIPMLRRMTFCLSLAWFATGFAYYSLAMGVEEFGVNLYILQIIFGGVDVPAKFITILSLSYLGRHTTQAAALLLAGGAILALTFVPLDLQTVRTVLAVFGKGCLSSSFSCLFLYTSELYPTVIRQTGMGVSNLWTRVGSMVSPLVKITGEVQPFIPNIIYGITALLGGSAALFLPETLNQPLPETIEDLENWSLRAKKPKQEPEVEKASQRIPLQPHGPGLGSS
The data set is described as follows: cis-inhibition of [3H]estrone sulfate uptake in hOAT3-expressing COS-7 cells, […] min. It counts as cell-based.

Substrate in data set [3]: C[C@]12CC[C@@H]3c4ccc(OS(=O)(=O)O)cc4CC[C@H]3[C@@H]1CCC2=O
The data set can be described thus: cells, lysate or membranes. The data set is classed as cell-based, Homo sapiens. The note with it: untreated cells; PBS/Ca2+/Mg2+; 0.3-10 µM; labelled compound (3H); parental-cell uptake subtracted.

As for `CC(C)C[C@H](NC(=O)[C@@H](NC(=O)c1cccc(-c2ccccc2)n1)[C@@H](C)O)B(O)O` [delanzomib], the “% inhibition at 30 nM” value in data set [1] is 61 (95% CI: 57 to 65). As to `CC(C)C[C@H](NC(=O)CNC(=O)c1cc(Cl)ccc1Cl)B(O)O` [ixazomib], in data set [1], the “% inhibition at 30 nM” value is listed as 50 (95% CI: 46 to 54). In turn, `CCCN(CCC)S(=O)(=O)c1ccc(C(=O)O)cc1` [probenecid] gave an inhibition at 5 µM in data set [2] of 40%.

B1: OAT3 (hOAT3) (Homo sapiens) (protein)
chain: T2 sequence (Q8TCC7 1-542)
notes: full-length human OAT3 with fused Myc tag, stably expressed in COS-7 cells; ~80 kDa on blot
Regarding B1, in data set [3], the Km was found to be 4.2 ± 0.3 µM.
